The record followed here is PubChem BioAssay (NCI).

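In this assay, cells in 96-well plates receive the compound at five concentrations for 48 hours. Endpoints are linearly interpolated between the surrounding concentrations. The concentration for 50% growth inhibition is given as GI50. TGI is the concentration that stops growth completely.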

Among the test systems are HCT-116 colon; HOP-92 NSCLC; MOLT-4 leukemia; NCI-H226 lung; SF-268 CNS; SK-OV-3 ovarian; SNB-75 CNS; SR leukemia; TK-10 renal; UO-31 renal.
Holding throughout (assay): NCI tumour cell line growth inhibition, 48 h

As for `CCc1nc(N)nc(N)c1-c1ccc(Cl)c(N=CN(C)C)c1`, the TGI in the assay on HCT-116 colon, with HOP-92 NSCLC, in the assay with MOLT-4 leukemia, in the assay on NCI-H226 lung, with SF-268 CNS and in the assay on SK-OV-3 ovarian was more than 100 µM each time. Also, the TGI with SNB-75 CNS is more than 100 µM; in the assay on SR leukemia, more than 83.4 µM; with TK-10 renal, more than 100 µM; in the assay with UO-31 renal, more than 100 µM.
`O=C(NS(=O)(=O)c1ccccc1)C(Cc1ccccc1)C(Cc1ccccc1)C(=O)NS(=O)(=O)c1ccccc1` (stereo not given): the TGI in the assay with HCT-116 colon, with HOP-92 NSCLC, in the assay with MOLT-4 leukemia, with NCI-H226 lung, with SF-268 CNS and in the assay on SK-OV-3 ovarian was more than 100 µM throughout. Besides, the TGI in the assay on SNB-75 CNS, with SR leukemia, in the assay with TK-10 renal and with UO-31 renal was more than 100 µM each time.
On to `CN(C)CCN1C(=O)c2cccc3cccc(c23)C1=O`, for which the GI50 in the assay with HCT-116 colon is 9.57 µM; in the assay on HOP-92 NSCLC it was 14.8 µM; in the assay with MOLT-4 leukemia, 6.3 µM; with NCI-H226 lung, 12.2 µM; in the assay with SF-268 CNS it was 18.9 µM; in the assay with SK-OV-3 ovarian it was 24.5 µM. Moreover, the GI50 was more than 25 µM in the assay with SNB-75 CNS, 5.18 µM with SR leukemia, 12.3 µM with TK-10 renal and 11 µM in the assay with UO-31 renal. For the same compound, the TGI is more than 25 µM in the assay with HCT-116 colon; more than 25 µM with HOP-92 NSCLC; 16.3 µM in the assay on MOLT-4 leukemia; more than 25 µM with NCI-H226 lung; more than 25 µM in the assay on SF-268 CNS; more than 25 µM in the assay on SK-OV-3 ovarian. Moreover, the TGI is more than 25 µM in the assay on SNB-75 CNS, 18.3 µM with SR leukemia, more than 25 µM with TK-10 renal and more than 25 µM with UO-31 renal.
Turning to `N#CC1=C(Cl)NC(Cl)=C(C#N)C1c1c(Cl)cccc1Cl`, the TGI was 34.3 µM with HCT-116 colon; 80 µM with HOP-92 NSCLC; more than 100 µM in the assay on MOLT-4 leukemia; more than 100 µM in the assay on NCI-H226 lung; 99.6 µM in the assay on SF-268 CNS; 88.8 µM in the assay on SK-OV-3 ovarian. Also, the TGI in the assay on SNB-75 CNS, in the assay on SR leukemia, in the assay on TK-10 renal and in the assay with UO-31 renal was more than 100 µM each time.
For `CC(Br)C(=O)Nc1ccc(C(=O)O)c(O)c1` (stereo not given), the TGI in the assay on HCT-116 colon, in the assay on HOP-92 NSCLC, in the assay on MOLT-4 leukemia, in the assay with NCI-H226 lung, in the assay with SF-268 CNS and with SK-OV-3 ovarian was more than 100 µM in each case. Besides, the TGI with SNB-75 CNS, in the assay with SR leukemia, with TK-10 renal and with UO-31 renal was more than 100 µM in each case.
As to `Cn1c(=O)c(Oc2ccc(F)cc2F)cc2cnc(NCCS(C)(=O)=O)nc21`, the GI50 in the assay on HCT-116 colon, with HOP-92 NSCLC, with MOLT-4 leukemia, in the assay with NCI-H226 lung, in the assay on SF-268 CNS and in the assay on SK-OV-3 ovarian was more than 25 µM each time. In addition, the GI50 with SNB-75 CNS, with SR leukemia, in the assay on TK-10 renal and with UO-31 renal was more than 25 µM in each case. In addition, the TGI in the assay on HCT-116 colon, with HOP-92 NSCLC, with MOLT-4 leukemia, in the assay with NCI-H226 lung, with SF-268 CNS and in the assay with SK-OV-3 ovarian was more than 25 µM each time. For the same compound, the TGI in the assay on SNB-75 CNS, in the assay on SR leukemia, with TK-10 renal and with UO-31 renal was more than 25 µM in each case.
Regarding `Oc1ccc(Cl)cc1CNc1nc2ccccc2[nH]1`, the GI50 in the assay on HCT-116 colon was 12.1 µM; in the assay on HOP-92 NSCLC, 2.37 µM; in the assay with MOLT-4 leukemia, 10.7 µM; with NCI-H226 lung, 19.6 µM; with SF-268 CNS, 14.3 µM; in the assay with SK-OV-3 ovarian, 16.8 µM. Besides, the GI50 with SNB-75 CNS is 4.58 µM; in the assay with SR leukemia it was 13.4 µM; in the assay with TK-10 renal, 15.7 µM; with UO-31 renal it was 4.73 µM. Moreover, the TGI was 24.7 µM in the assay with HCT-116 colon; 10.4 µM in the assay with HOP-92 NSCLC; more than 100 µM in the assay with MOLT-4 leukemia; 50.2 µM with NCI-H226 lung; 30.2 µM in the assay on SF-268 CNS; 34.8 µM with SK-OV-3 ovarian. In addition, the TGI stood at 21.6 µM with SNB-75 CNS, 59.4 µM with SR leukemia, 31.2 µM in the assay with TK-10 renal and 19.1 µM with UO-31 renal.
`O=C(Nc1ccc(I)cc1F)c1cc(Cl)ccc1O`: the GI50 was 0.403 µM with HCT-116 colon; 0.167 µM in the assay on HOP-92 NSCLC; 1.44 µM in the assay on MOLT-4 leukemia; 1.17 µM with NCI-H226 lung; 0.507 µM in the assay with SF-268 CNS; 0.615 µM with SK-OV-3 ovarian. Moreover, the GI50 in the assay on SNB-75 CNS is 0.308 µM; in the assay with SR leukemia it was 0.531 µM; in the assay with TK-10 renal it was 1.13 µM; in the assay with UO-31 renal it was 0.235 µM. Besides, the TGI with HCT-116 colon is 1.95 µM; in the assay on HOP-92 NSCLC, 0.505 µM; in the assay on MOLT-4 leukemia, 5.22 µM; in the assay on NCI-H226 lung it was 4.89 µM; in the assay with SF-268 CNS, 7.06 µM; in the assay on SK-OV-3 ovarian, 2.64 µM. Also, the TGI with SNB-75 CNS is 2.36 µM; with SR leukemia it was more than 100 µM; with TK-10 renal it was 16.3 µM; in the assay with UO-31 renal, 1.65 µM.
Regarding `CC(C)COC(=O)c1ccc2[nH]c(O)c(C=Nc3ccc(S(N)(=O)=O)cc3)c2c1`, the GI50 was 0.613 µM in the assay with HCT-116 colon; 1.45 µM with HOP-92 NSCLC; 1.68 µM with MOLT-4 leukemia; 1.73 µM in the assay with NCI-H226 lung; 1.22 µM in the assay with SF-268 CNS; 2.19 µM in the assay with SK-OV-3 ovarian. In addition, the GI50 is 1.77 µM in the assay with SNB-75 CNS, 0.36 µM with SR leukemia, 1.65 µM in the assay with TK-10 renal and 2.44 µM in the assay on UO-31 renal. Also, the TGI turned out to be 3 µM in the assay on HCT-116 colon; 4.22 µM with HOP-92 NSCLC; 11 µM in the assay on MOLT-4 leukemia; 6.79 µM in the assay with NCI-H226 lung; 4.45 µM in the assay on SF-268 CNS; 6.25 µM in the assay with SK-OV-3 ovarian. Besides, the TGI in the assay on SNB-75 CNS turned out to be 5.15 µM; in the assay with SR leukemia it was 6.43 µM; with TK-10 renal, 4.52 µM; with UO-31 renal it was 10.2 µM.
